In patent US6881705B2, “Fungicidal composition and use of this composition for controlling plant diseases” (Bayer Cropscience S.A., priority 2001, dated 2005):

Key:
[1] = test system: Gloeosporium spp.; test: in vivo trial combating Gloeosporium spp. on apples (Golden variety, preventive sprinkling)
Protocol: This example proposes to give an illustration of the efficacy of a composition according to the invention for combating Gloeosporium spp. on apples, this trial was carried out in vivo. The fungicidal compositions are used in solution at the doses detailed in Table 2. Apples of the Golden variety, untreated after harvest, are treated by sprinkling a fungicidal solution up to the run-off limit at the doses described in Table 2 of results (8 apples per product). 6 hours later, the fruit are inoculated by sprinkling an aqueous suspension at 150 000 spores/ml of Gloeosporium spp. obtained from a preculture on PDA medium. This inoculation by sprinkling is carried out up to the run-off limit. The fruit are then stored in the dark at 20° C., 100% relative humidity and the scores for the disease start 3 weeks later, for a period of 2 weeks. The number of fruit affected by rot are counted and, in comparison with the untreated control, a percentage efficacy is calculated using the following formula: […].

[2] = test system: Geotrichum candidum; test: in vitro control of Geotrichum candidum on PDA medium (colony diameter in microtitre plate wells); assay type: cell-based; settings: 60 ppm in PDA medium; for Radial growth of the fungus (mm): 22° C., untreated control 15 mm; for Efficacy (%): colony diameter versus untreated control
Protocol: This example gives an illustration of the efficacy of a composition according to the invention for controlling Geotrichum candidum, this trial was carried out in vitro. The fungicidal compositions are used in solution at the doses detailed in Table 1. […] 1 day later, a microdrop of an aqueous suspension of Geotrichum candidum spores, supplemented with 400 ppm of Tween 20, is brought to the surface of each well of the microtitre plate. The cultures are then incubated at 22° C., 60% relative humidity, under subdued light until the control culture (without fungicide) has covered the entire surface of the well. The diameter of each colony is then measured and, in comparison with the untreated control, a percentage efficacy is calculated using the following formula: (diameter of the control−diameter of the trial)/diameter of the control×100.

Structure (SMILES): C=CCOC(Cn1ccnc1)c1ccc(Cl)cc1Cl (stereo not drawn) [Imazalil, imazalil]
- Efficacy (%) ([1]; 375 ppm, sprinkled on Golden apples 6 hours before inoculation, rot versus untreated control): −29.2%
- Radial growth of the fungus (mm) [2]: 14 mm
- Efficacy (%) [2]: 7%

Structure (SMILES): Cc1cc(C)nc(Nc2ccccc2)n1 [Pyrimethanil, pyrimethanil]
- Efficacy (%) ([1]; 75 ppm): 14.9%
- Radial growth of the fungus (mm) [2]: 15 mm
- Efficacy (%) [2]: 0%
